Where a name gives a salt, the structure may show the parent alone.
Tests used:
PARP1 = PARP1 (Homo sapiens, UniProt P09874); assay: PARP1 fluorescence polarization binding assay; details: binding IC50, GST-tagged PARP1 20 nM, PARPi-FL 3 nM
Method: Compounds of the present disclosure were tested in a PARP1 fluorescence polarization binding assay at Pharmaron (Beijing, P.R.China). In this biochemical assay, binding of test compound to recombinant human PARP1 reduces the amount of binding of a fluorescent probe, and consequently reduces the detected level of fluorescence polarization. Test compound stock solutions were prepared in DMSO and then serially diluted into 10 concentrations by 3-fold dilution in a 384-well plate using a TECAN EVO200. 60 nL of each dilution was transferred to the plate using an Echo550 (Labcyte), and then 10 μL 40 nM GST-tagged PARP1 (BPS Bioscience, Cat #80501), diluted in assay buffer (50 mM Tris pH 8.0, 0.001% Triton X-100, 10 mM MgCl2, 150 mM NaCl), was added to the plate. After a centrifugation at 1000 rpm for 1 min, the assay plate was incubated for 30 min at RT. 10 μL 6 nM PARPi-FL (TOCRIS, Cat #6461), diluted using assay buffer, was then added to the plate. The final concentrations of PARP1 and PARPi-FL were 20 nM and 3 nM, respectively, in a total volume of 20 μL. After a centrifugation at 1000 rpm for 1 min, the assay plate was incubated for 4 h at RT. Samples in each well were read using an Envision instrument (Perkin-Elmer; Ex=480 nm Em=FITC FP-P pol 535 nm & FITC FP-S pol 535 nm). Percent inhibition was calculated from mP values using Inhibition (%)=[1−(mPc−mPL)/(mPH−mPL)]×100%, where mPc, mPL, and mPH are the mP values of test compound, Low controls, and High controls, respectively. Binding IC50 values were calculated using XLFit (equation 201: y=A+((B−A)/(1+((x/C)^D))), where A=bottom, B=top, C=IC50, and D=slope) with a floating top and bottom for curves. Binding IC50 values are shown in Table A and are presented in ranges, in which “+++”<100 nM, 100 nM≤“++”<3000 nM, and “+”≥3000 nM.

recombinant human PARP2 = recombinant human PARP2 (Homo sapiens, UniProt Q9UGN5); assay: PARP2 fluorescence polarization binding assay; details: for IC50: binding IC50, GST-tagged PARP2 20 nM, PARPi-FL 3 nM; for inhibition at 10 µM: read-out: PARP2 % inh at 10 μM
Chain of recombinant human PARP2 (Q9UGN5 whole entry): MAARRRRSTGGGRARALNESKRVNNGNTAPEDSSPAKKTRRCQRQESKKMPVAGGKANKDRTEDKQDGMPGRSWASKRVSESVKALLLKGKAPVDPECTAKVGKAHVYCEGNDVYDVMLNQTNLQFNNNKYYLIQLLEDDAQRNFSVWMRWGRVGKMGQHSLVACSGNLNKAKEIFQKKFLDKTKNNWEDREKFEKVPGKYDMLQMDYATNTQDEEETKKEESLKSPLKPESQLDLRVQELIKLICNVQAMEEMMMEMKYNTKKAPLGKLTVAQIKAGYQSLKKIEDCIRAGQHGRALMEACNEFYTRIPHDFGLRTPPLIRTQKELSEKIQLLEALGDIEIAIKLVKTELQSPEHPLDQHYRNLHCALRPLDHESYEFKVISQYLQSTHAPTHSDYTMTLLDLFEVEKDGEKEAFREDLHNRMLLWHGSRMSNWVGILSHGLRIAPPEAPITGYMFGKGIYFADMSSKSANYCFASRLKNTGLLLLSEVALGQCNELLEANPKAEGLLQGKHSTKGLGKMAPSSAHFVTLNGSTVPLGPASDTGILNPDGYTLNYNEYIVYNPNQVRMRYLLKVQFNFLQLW
Method: Compounds of the present disclosure were tested in a PARP2 fluorescence polarization binding assay at Pharmaron (Beijing, P.R. China). In this biochemical assay, binding of test compound to recombinant human PARP2 reduces the amount of binding of a fluorescent probe, and consequently reduces the detected level of fluorescence polarization. Test compound stock solutions were prepared in DMSO and then serially diluted into 10 concentrations by 3-fold dilution in a 384-well plate using a TECAN EVO200. Alternatively, a single concentration was prepared. 60 nL of each dilution was transferred to the plate using an Echo550 (Labcyte), and then 10 μL 40 nM GST-tagged PARP2 (BPS Bioscience, Cat #80502), diluted in assay buffer (50 mM Tris pH 8.0, 0.001% Triton X-100, 10 mM MgCl2, 150 mM NaCl), was added to the plate. After a centrifugation at 1000 rpm for 1 min, the assay plate was incubated for 30 min at RT. 10 μL 6 nM PARPi-FL (TOCRIS, Cat #6461), diluted using assay buffer, was then added to the plate. […] After a centrifugation at 1000 rpm for 1 min, the assay plate was incubated for 4 h at RT. Samples in each well were read using an Envision instrument (Perkin-Elmer; Ex=480 nm Em=FITC FP-P pol 535 nm & FITC FP-S pol 535 nm). […] Binding IC50 values were calculated using XLFit (equation 201: […])^D))), where A=bottom, B=top, C=IC50, and D=slope) with a floating top and bottom for curves.

[1] = tested on: DLD-1 BRCA2(−/−) colorectal adenocarcinoma cells; assay: Cell viability assay (Cell Titer-Glo), DLD-1 BRCA2(−/−); format: cell-based; details: Homo sapiens, DLD-1, 168 h; 7 days incubation, 200 cells/well
Method: (§1) Compounds of the present disclosure were tested for their effects on the viability of cancer cells. DLD-1 wild-type and DLD-1 BRCA2(−/−) colorectal adenocarcinoma cells, an isogenic pair of cell lines differing in the presence and absence, respectively, of both BRCA2 alleles, were used. The cells were harvested during the logarithmic growth period, counted, and seeded at 50 cells/well for DLD-1 wild-type and 200 cells/well for DLD-1 BRCA2(−/−) in a 384-well cell culture plate. After seeding, cells were incubated at 37° C., 5% CO2 overnight. Cells were treated with serially diluted test compounds at 10 concentrations (e.g., from 1.5 nM-30 μM) for generation of dose response curves, or at a single concentration. The plate was further incubated for another 7 days in a humidified incubator at 37° C. and 5% CO2. Cell viability was assessed by luminescence measurement after addition of Cell Titer-Glo reagent (Promega, Madison, Wis.) according to the manufacturer's instructions. Cell viability IC50 values were calculated using XLFit, equation 201: y=A+((B−A)/(1+((x/C)^D))), where A=bottom, B=top, C=IC50, and D=slope. IC50 values are shown in Table B and are presented in ranges, in which “+++”<300 nM, 300 nM≤“++”<3000 nM, and “+”≥3000 nM. Values for percent inhibition at 10 μM are also shown in Table B and are presented in ranges, in which “***”≥67%, 33%≤“**”<67%, and “*”<33%. Effects of the test compounds on the viability of other cell lines such as MDA-MB-436, MDA-MB-231, SUM149PT, HCC1395, and UWB1.289 are determined in an analogous method.

[2] = tested on: DLD-1 wild-type colorectal adenocarcinoma cells; assay: Cell viability assay (Cell Titer-Glo), DLD-1 wild-type; format: cell-based; details: Homo sapiens, DLD-1, 168 h, 7 days incubation; for inhibition at 10 µM: read-out: DLD-1 wild-type % inh at 10 μM; for IC50: 50 cells/well
Method: as §1

Chain of PARP1 (P09874 whole entry): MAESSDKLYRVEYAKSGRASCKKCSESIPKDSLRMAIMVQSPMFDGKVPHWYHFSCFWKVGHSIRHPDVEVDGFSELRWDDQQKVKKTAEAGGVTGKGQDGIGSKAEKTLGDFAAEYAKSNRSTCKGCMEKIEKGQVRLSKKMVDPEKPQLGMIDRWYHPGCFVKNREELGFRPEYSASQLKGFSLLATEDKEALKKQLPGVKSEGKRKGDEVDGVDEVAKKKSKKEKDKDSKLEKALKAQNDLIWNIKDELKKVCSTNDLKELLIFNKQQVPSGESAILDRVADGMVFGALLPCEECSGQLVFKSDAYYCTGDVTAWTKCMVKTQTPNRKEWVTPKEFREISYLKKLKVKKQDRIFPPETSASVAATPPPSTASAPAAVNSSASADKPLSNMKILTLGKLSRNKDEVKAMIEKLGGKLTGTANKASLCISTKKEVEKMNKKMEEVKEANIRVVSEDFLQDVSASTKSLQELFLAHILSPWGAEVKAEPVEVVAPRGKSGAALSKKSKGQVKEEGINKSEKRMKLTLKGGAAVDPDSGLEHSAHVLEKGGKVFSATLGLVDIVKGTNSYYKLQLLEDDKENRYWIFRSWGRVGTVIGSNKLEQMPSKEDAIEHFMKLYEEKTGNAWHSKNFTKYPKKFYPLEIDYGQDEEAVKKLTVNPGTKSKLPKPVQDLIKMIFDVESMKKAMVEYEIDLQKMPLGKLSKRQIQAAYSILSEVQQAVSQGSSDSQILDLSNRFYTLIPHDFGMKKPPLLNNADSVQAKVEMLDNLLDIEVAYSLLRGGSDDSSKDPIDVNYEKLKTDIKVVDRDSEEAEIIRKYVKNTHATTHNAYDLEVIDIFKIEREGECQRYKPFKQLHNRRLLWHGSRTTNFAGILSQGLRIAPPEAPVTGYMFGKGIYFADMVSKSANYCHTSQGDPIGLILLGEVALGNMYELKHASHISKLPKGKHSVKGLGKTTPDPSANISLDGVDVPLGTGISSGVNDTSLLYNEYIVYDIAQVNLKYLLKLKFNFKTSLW

Row | SMILES | IC50 (PARP1) [µM] | IC50 (recombinant human PARP2) [µM] | inhibition at 10 µM (recombinant human PARP2) [%] | IC50 [1] [µM] | inhibition at 10 µM [2] [%] | IC50 [2] [µM]
1 | CCn1c(=O)[nH]c2cc(CN3CC4(C3)CN(c3ccc(C(=O)NC)nc3)C4)ccc2c1=O [Compound 100, 5-{6-[(3-ethyl-2,4-dioxo-1,2,3,4-tetrahydroquinazolin-7-yl)methyl]-2,6-diazaspiro[3.3]heptan-2-yl}-N-methylpyridine-2-carboxamide hemiformate] | 0.1 to 3 | > 3 | 33 to 67 | > 3 | < 33 | > 3
2 | CCn1c(=O)[nH]c2c(F)c(CN3CCN(c4ccc(C(=O)NC)nc4C)CC3)ccc2c1=S [Compound 184, 5-(4-((3-ethyl-8-fluoro-2-oxo-4-thioxo-1,2,3,4-tetrahydroquinazolin-7-yl)methyl)piperazin-1-yl)-N,6-dimethylpicolinamide] | < 0.1 | > 3 | 33 to 67 | < 0.3 | 33 to 67 | > 3
3 | CCN1Cc2ccc(CN3CCN(c4ccc(C(=O)NC)nc4C)CC3)cc2NC1=O [Compound 202, 5-{4-[(3-ethyl-2-oxo-1,4-dihydroquinazolin-7-yl)methyl]piperazin-1-yl}-N,6-dimethylpyridine-2-carboxamide] | < 0.1 | – | 33 to 67 | < 0.3 | < 33 | > 3
4 | CCN1Cc2ccc(CN3CCN(c4ccc(F)cc4F)CC3)cc2NC1=O [Compound 225, 7-{[4-(2,4-difluorophenyl)piperazin-1-yl]methyl}-3-ethyl-1,4-dihydroquinazolin-2-one] | < 0.1 | – | 33 to 67 | > 3 | < 33 | > 3
5 | CCn1c(=O)[nH]c2cc(CN3CCN(c4ccc(F)cc4F)CC3)ccc2c1=O [Compound 226, 7-{[4-(2,4-difluorophenyl)piperazin-1-yl]methyl}-3-ethyl-1H-quinazoline-2,4-dione formate] | < 0.1 | – | 33 to 67 | > 3 | < 33 | > 3
6 | CCn1c(=O)[nH]c2cc(CN3CCN(c4ccc(C(=O)NC)cc4F)CC3)sc2c1=O [Compound 232] | < 0.1 | > 3 | 33 to 67 | > 3 | < 33 | > 3
7 | CCC(=O)c1ccc(N2CCN(Cc3cc4[nH]c(=O)n(CC)c(=O)c4s3)CC2)c(C)n1 [Compound 326, 3-ethyl-6-((4-(2-methyl-6-propionylpyridin-3-yl)piperazin-1-yl)methyl) thieno[3,2-d]pyrimidine-2,4(1H,3H)-dione formate] | < 0.1 | > 3 | 33 to 67 | > 3 | < 33 | > 3
8 | CCn1c(=O)[nH]c2cc(CN3CCN(c4cnc5c(NC)nccc5c4)CC3)sc2c1=O [Compound 360, 3-ethyl-6-((4-(8-(methylamino)-1,7-naphthyridin-3-yl)piperazin-1-yl)methyl)thieno[3,2-d]pyrimidine-2,4(1H,3H)-dione formate] | < 0.1 | > 3 | 33 to 67 | > 3 | 33 to 67 | > 3
9 | CCn1c(=O)[nH]c2cc(CN3CCC(c4ccc(C(=O)NC)nc4C)CC3)ccc2c1=S [Compound 498, 5-(1-((3-ethyl-2-oxo-4-thioxo-1,2,3,4-tetrahydroquinazolin-7-yl)methyl)piperidin-4-yl)-N,6-dimethylpicolinamide formate] | < 0.1 | > 3 | 33 to 67 | > 3 | 33 to 67 | > 3
10 | CCn1c(=O)[nH]c2cc(CN3CCN(c4ccc(C(=O)NC)nc4C)CC3)cc(Br)c2c1=S [Compound 501, 5-(4-((5-bromo-3-ethyl-2-oxo-4-thioxo-1,2,3,4-tetrahydroquinazolin-7-yl)methyl)piperazin-1-yl)-N,6-dimethylpicolinamide formate] | < 0.1 | > 3 | 33 to 67 | 0.3 to 3 | < 33 | > 3
11 | CCn1c(=O)[nH]c2cc(CN3CCN(c4ccc(C(=O)NC)nc4C)CC3)c(Br)cc2c1=S [Compound 504, 5-(4-((6-bromo-3-ethyl-2-oxo-4-thioxo-1,2,3,4-tetrahydroquinazolin-7-yl)methyl)piperazin-1-yl)-N,6-dimethylpicolinamide] | 0.1 to 3 | > 3 | 33 to 67 | 0.3 to 3 | < 33 | > 3
12 | CCn1c(=O)[nH]c2cc(CN3CCN(c4ccc(C(=O)NC)nc4C)CC3)c(C#N)cc2c1=S [Compound 505, 5-(4-((6-cyano-3-ethyl-2-oxo-4-thioxo-1,2,3,4-tetrahydroquinazolin-7-yl)methyl)piperazin-1-yl)-N,6-dimethylpicolinamide trifluoroacetate] | < 0.1 | > 3 | 33 to 67 | 0.3 to 3 | < 33 | > 3
13 | CCn1c(=O)[nH]c2cc(C=C3CCN(c4ccc(C(=O)NC)nc4C)CC3)ccc2c1=S [Compound 507, 5-(4-((3-ethyl-2-oxo-4-thioxo-1,2,3,4-tetrahydroquinazolin-7-yl)methylene)piperidin-1-yl)-N,6-dimethylpicolinamide] | < 0.1 | > 3 | 33 to 67 | > 3 | > 67 | > 3
14 | CCn1c(=O)[nH]c2cc(CN3CCN(c4ccc(C(N)=O)nc4C)CC3)sc2c1=O [Compound 516, 5-(4-((3-ethyl-2,4-dioxo-1,2,3,4-tetrahydrothieno[3,2-d]pyrimidin-6-yl)methyl)piperazin-1-yl)-6-methylpicolinamide] | < 0.1 | > 3 | 33 to 67 | > 3 | < 33 | > 3

— US20240132449A1, “HETEROCYCLIC COMPOUNDS AND METHODS OF USE THEREOF” (1cBio, Inc., priority 2022, published 2024)
